Experimental findings from US20180243274A1, “ANTIBACTERIAL COMPOSITIONS” (WOCKHARDT LIMITED, priority 2013, published 2018) are described below.

Assay [1] deals with E. coli NCTC 13353 producing CTX-M15 and OXA 1 beta-lactamase enzymes. As to the kind of experiment: Time kill study against E. coli NCTC 13353. Type of assay: cell-based. The settings on record: for effect on bacterial counts when used alone: throughout the duration of the study. Here is the method: (§1) The synergistic killing effect of the combinations according to invention was studied by performing time kill studies. In a typical time kill study, the freshly grown cultures were diluted to the required cell density (initial starting inoculum) in Cation adjusted Muller Hinton broth medium (BD, USA). The antibacterial agents (either alone or in combination) at the required concentrations were added into the culture-containing medium. The samples were incubated under shaking condition (120 rpm) at 37° C. Enumeration of viable bacterial count was done every 2 hour by diluting in normal saline and plating on to the Tryptic Soya Agar plates (BD, USA). The plates were incubated for 24 hours to arrive at the viable bacterial count. The results are expressed in terms of Log 10 CFU per ml. In general, the decrease of 1 Log 10 CFU/ml corresponds to 90% killing of bacteria. Similarly, 2 Log 10 CFU/ml reductions indicates to 99% killing of bacteria and 3 Log 10 CFU/ml reductions is equal to 99.9% killing of bacteria.
E. coli NCTC 13353 produces resistant CTX-M15 and OXA 1 beta-lactamase enzymes.

In assay [2] the test system is clinical isolate of E. coli M50 producing CMY 6, DHA—1/2 beta-lactamase enzymes. Kind of assay: Time kill study against clinical isolate E. coli M50. To be noted: for effect on bacterial counts when used alone: throughout the duration of the study. In kind it is cell-based. Here is the method:
as §1
The results on antibacterial activity of the antibacterial agent selected from cefixime, cefpodoxime, ceftibuten or cefuroxime alone and in combination with a compound of Formula (I) against E. coli M50 are given in Table 2. E. coli M50 produces resistant CMY 6, DHA-½ beta-lactamase enzymes.

In the case of `C=CC1=C(C(=O)O)N2C(=O)[C@@H](NC(=O)/C(=N\OCC(=O)O)c3csc(N)n3)[C@H]2SC1` [Cefixime, cefixime], in assay [1] (agent alone 1 mcg/ml), the “Bacterial count (Log10 CFU/ml) 0 hours” value was 7.23 Log10 CFU/ml, the “Bacterial count (Log10 CFU/ml) 2 hours” value was determined as 8.65 Log10 CFU/ml, the “Bacterial count (Log10 CFU/ml) 4 hours” value is on record as 8.90 Log10 CFU/ml and the “Bacterial count (Log10 CFU/ml) 6 hours” value amounted to 8.84 Log10 CFU/ml. In assay [1] (agent alone 1 mcg/ml), the “Bacterial count (Log10 CFU/ml) 24 hours” value is listed as 9.06 Log10 CFU/ml. Moreover, in assay [2] (agent alone 4 mcg/ml), the “Bacterial count (Log10 CFU/ml) 0 hour” value is 7.77 Log10 CFU/ml, the “Bacterial count (Log10 CFU/ml) 2 hours” value worked out at 8.84 Log10 CFU/ml, the “Bacterial count (Log10 CFU/ml) 4 hours” value turned out to be 9.20 Log10 CFU/ml and the “Bacterial count (Log10 CFU/ml) 6 hours” value came to 8.90 Log10 CFU/ml. In assay [2] (agent alone 4 mcg/ml), the “Bacterial count (Log10 CFU/ml) 8 hours” value stood at 9.30 Log10 CFU/ml.
`Nc1nc(/C(=C/CC(=O)O)C(=O)N[C@@H]2C(=O)N3C(C(=O)O)=CCS[C@H]23)cs1` [Ceftibuten, ceftibuten]: in assay [1] (agent alone 1 mcg/ml), the “Bacterial count (Log10 CFU/ml) 0 hours” value turned out to be 7.23 Log10 CFU/ml, the “Bacterial count (Log10 CFU/ml) 2 hours” value was 8.10 Log10 CFU/ml, the “Bacterial count (Log10 CFU/ml) 4 hours” value is reported as 8.7 Log10 CFU/ml and the “Bacterial count (Log10 CFU/ml) 6 hours” value was determined as 9.04 Log10 CFU/ml. The “Bacterial count (Log10 CFU/ml) 24 hours” value in assay [1] (agent alone 1 mcg/ml) is listed as 9.51 Log10 CFU/ml. For the same compound, the “effect on bacterial counts when used alone” value (“effect on bacterial counts” below) in assay [1] is listed as “did not reduce the bacterial counts”. Besides, in assay [2] (agent alone 4 mcg/ml), the “Bacterial count (Log10 CFU/ml) 0 hour” value is 7.77 Log10 CFU/ml, the “Bacterial count (Log10 CFU/ml) 2 hours” value stood at 8.48 Log10 CFU/ml, the “Bacterial count (Log10 CFU/ml) 4 hours” value is 8.70 Log10 CFU/ml and the “Bacterial count (Log10 CFU/ml) 6 hours” value is on record as 9.08 Log10 CFU/ml. Besides, the “Bacterial count (Log10 CFU/ml) 8 hours” value in assay [2] (agent alone 4 mcg/ml) is 9.20 Log10 CFU/ml. Moreover, the “effect on bacterial counts” value in assay [2] is “did not reduce the bacterial counts”.
Turning to `CO/N=C(\C(=O)N[C@@H]1C(=O)N2C(C(=O)O)=C(COC(N)=O)CS[C@H]12)c1ccco1` [Cefuroxime, cefuroxime], in assay [1] (agent alone 1 mcg/ml), the “Bacterial count (Log10 CFU/ml) 0 hours” value worked out at 7.23 Log10 CFU/ml, the “Bacterial count (Log10 CFU/ml) 2 hours” value came out at 8.25 Log10 CFU/ml, the “Bacterial count (Log10 CFU/ml) 4 hours” value amounted to 8.80 Log10 CFU/ml and the “Bacterial count (Log10 CFU/ml) 6 hours” value was 9.38 Log10 CFU/ml. In assay [1] (agent alone 1 mcg/ml), the “Bacterial count (Log10 CFU/ml) 24 hours” value is 9.48 Log10 CFU/ml. In addition, in assay [1], the “effect on bacterial counts” value is recorded as “did not reduce the bacterial counts”. Moreover, in assay [2] (agent alone 4 mcg/ml), the “Bacterial count (Log10 CFU/ml) 0 hour” value came to 7.77 Log10 CFU/ml, the “Bacterial count (Log10 CFU/ml) 2 hours” value came out at 8.58 Log10 CFU/ml, the “Bacterial count (Log10 CFU/ml) 4 hours” value worked out at 9.02 Log10 CFU/ml and the “Bacterial count (Log10 CFU/ml) 6 hours” value is reported as 9.2 Log10 CFU/ml. Moreover, the “Bacterial count (Log10 CFU/ml) 8 hours” value in assay [2] (agent alone 4 mcg/ml) is 9.50 Log10 CFU/ml. In addition, in assay [2], the “effect on bacterial counts” value is recorded as “did not reduce the bacterial counts”.
Turning to `C[C@@H](O)[C@H]1C(=O)N2C(C(=O)O)=C(SCCN=CN)C[C@H]12` [Imipenem], in assay [1] (agent alone 1 mcg/ml), the “Bacterial count (Log10 CFU/ml) 0 hours” value is 7.23 Log10 CFU/ml, the “Bacterial count (Log10 CFU/ml) 2 hours” value worked out at 4.95 Log10 CFU/ml, the “Bacterial count (Log10 CFU/ml) 4 hours” value turned out to be 4.47 Log10 CFU/ml and the “Bacterial count (Log10 CFU/ml) 6 hours” value is reported as 4.39 Log10 CFU/ml. Also, the “Bacterial count (Log10 CFU/ml) 24 hours” value in assay [1] (agent alone 1 mcg/ml) turned out to be 7.34 Log10 CFU/ml. In addition, in assay [2] (alone 1 mcg/ml), the “Bacterial count (Log10 CFU/ml) 0 hour” value worked out at 7.77 Log10 CFU/ml, the “Bacterial count (Log10 CFU/ml) 2 hours” value stood at 5.60 Log10 CFU/ml, the “Bacterial count (Log10 CFU/ml) 4 hours” value is listed as 7.47 Log10 CFU/ml and the “Bacterial count (Log10 CFU/ml) 6 hours” value was found to be 8.07 Log10 CFU/ml. The “Bacterial count (Log10 CFU/ml) 8 hours” value in assay [2] (alone 1 mcg/ml) turned out to be 8.47 Log10 CFU/ml.
As to `COCC1=C(C(=O)O)N2C(=O)[C@@H](NC(=O)/C(=N\OC)c3csc(N)n3)[C@H]2SC1` [Cefpodoxime, cefpodoxime], in assay [1] (agent alone 1 mcg/ml), the “Bacterial count (Log10 CFU/ml) 0 hours” value came out at 7.23 Log10 CFU/ml, the “Bacterial count (Log10 CFU/ml) 2 hours” value was found to be 8.17 Log10 CFU/ml, the “Bacterial count (Log10 CFU/ml) 4 hours” value was found to be 8.74 Log10 CFU/ml and the “Bacterial count (Log10 CFU/ml) 6 hours” value was found to be 8.90 Log10 CFU/ml. The “Bacterial count (Log10 CFU/ml) 24 hours” value in assay [1] (agent alone 1 mcg/ml) came out at 9.06 Log10 CFU/ml. Also, in assay [2] (agent alone 4 mcg/ml), the “Bacterial count (Log10 CFU/ml) 0 hour” value is listed as 7.77 Log10 CFU/ml, the “Bacterial count (Log10 CFU/ml) 2 hours” value is on record as 8.60 Log10 CFU/ml, the “Bacterial count (Log10 CFU/ml) 4 hours” value is reported as 9.04 Log10 CFU/ml and the “Bacterial count (Log10 CFU/ml) 6 hours” value was 9.16 Log10 CFU/ml. Further, in assay [2] (agent alone 4 mcg/ml), the “Bacterial count (Log10 CFU/ml) 8 hours” value was determined as 9.19 Log10 CFU/ml.
Consider `O=C(NOC[C@@H]1CCCN1)[C@@H]1CC[C@@H]2CN1C(=O)N2OS(=O)(=O)O` [Compound of Formula (I), (2S, 5R)-7-oxo-N-[(2S)-pyrrolidin-2-ylmethoxy]-6-(sulfooxy)-1,6-diazabicyclo[3.2.1]octane-2-carboxamide], for which, in assay [1] (alone 4 mcg/ml), the “Bacterial count (Log10 CFU/ml) 0 hours” value turned out to be 7.23 Log10 CFU/ml, the “Bacterial count (Log10 CFU/ml) 2 hours” value stood at 7.17 Log10 CFU/ml, the “Bacterial count (Log10 CFU/ml) 4 hours” value is listed as 7.14 Log10 CFU/ml and the “Bacterial count (Log10 CFU/ml) 6 hours” value was 7.11 Log10 CFU/ml. The “Bacterial count (Log10 CFU/ml) 24 hours” value in assay [1] (alone 4 mcg/ml) turned out to be 7.87 Log10 CFU/ml. In addition, the “effect on bacterial counts” value in assay [1] is recorded as “did not reduce the bacterial counts”. For the same compound, in assay [2] (agent alone 4 mcg/ml), the “Bacterial count (Log10 CFU/ml) 0 hour” value was 7.77 Log10 CFU/ml, the “Bacterial count (Log10 CFU/ml) 2 hours” value was 8.02 Log10 CFU/ml, the “Bacterial count (Log10 CFU/ml) 4 hours” value turned out to be 8.09 Log10 CFU/ml and the “Bacterial count (Log10 CFU/ml) 6 hours” value is listed as 8.07 Log10 CFU/ml. In assay [2] (agent alone 4 mcg/ml), the “Bacterial count (Log10 CFU/ml) 8 hours” value stood at 8.08 Log10 CFU/ml. Moreover, the “effect on bacterial counts” value in assay [2] was “did not reduce the bacterial counts”.
